Test results published in US20240384250A1, “FIBROBLAST GROWTH FACTOR 23 MODULATING COMPOUNDS” (THE UAB RESEARCH FOUNDATION, priority 2021, published 2024).
Entries after “also recorded” stand apart in the source; their conditions may differ.

Experiments:
FGF23 binding to FGFR1c = target: T1, FGF23 binding to FGFR1c (Homo sapiens, UniProt P11362+Q9GZV9); assay: Plate-based binding, FGF23 coated, then sKL, heparin or PBS, then Fc-FGFR; settings: with sKL, with heparin 0.4 USP, or alone
T1 construct: Fc-coupled FGFR ectodomains were immobilized on protein A/G beads; purchased R&D Systems 2604FG025/CF or 2629FG025/CF; 658FR050
Protocol: (§1) Proteins were coated on 96-well plates (MaxiSorp; 439454, Thermo Fisher Scientific), and proteins were added to wells in 100 μl of enzyme-linked immunosorbent assay (ELISA) coating buffer (E107, Bethyl Laboratories) with a lid placed overtop and incubated at 4° C. overnight. Plates were washed 5× with 350 μl of assay buffer (50 mM Tris [pH 7.4], 200 mM NaCl, 0.01% Tween 20) on a 50 TS microplate washer (BioTek). Plates were blocked for 1 hour in 200 μl of assay buffer with 0.5% BSA. Plates were washed as before, and proteins were incubated on plates in 100 μl of assay buffer with 0.5% BSA. Proteins or heparin was incubated in orders described in the respective figure legends. Assays using FLAG-tag-based detection were incubated with anti-FLAG coupled to HRP at 1:20,000, and assays using Fc detection were incubated with anti-human Fc coupled to HRP at 1:10,000. Plates were washed as above, and 100 μl of 3,3′,5,5′-tetramethylbenzidine (TMB) substrate (E102, Bethyl Laboratories) was added for 15 to 20 minutes until positive wells developed a dark blue color. Reactions were stopped with ELISA stop solution (E115, Bethyl Laboratories) and analyzed using the Synergy HI plate reader (BioTek) at 450 nm wavelength. […] As a control to remove background absorbance values, wells were coated with an equal amount of BSA to match the amount of protein coated in experimental wells and treated the same as experimental wells. To study the effects of sKL on the binding between paracrine FGFs and FGFRs, plates were run as above except coated with paracrine FGFs. Fc-FGFR1 was preincubated with sKL or vehicle for 60 minutes, and then the combination was added to wells and the assay was run as before.

FGF23 binding to FGFR2c = target: T2, FGF23 binding to FGFR2c (Homo sapiens, UniProt P21802); assay: as above; settings: with sKL, with heparin 0.4 USP, or alone
T2 construct: Fc-coupled FGFR ectodomains were immobilized on protein A/G beads; purchased R&D Systems 2604FG025/CF or 2629FG025/CF; 712FR050
Protocol: as §1

[1] = tested on: neonatal rat ventricular myocytes; assay: Hypertrophic growth of isolated neonatal rat ventricular myocytes (cell area); type: cell-based; settings: for FGF23-induced increase in the cell area in the presence of heparin: heparin 0.19 USP/ml, increasing FGF23 concentrations, 48 hours
Protocol: Neonatal rat ventricular myocytes (NRVMs) were isolated using a kit according to the manufacturer's protocol (LK003300, Worthington Biochemical Corporation), as done previously.^13,16,17 Briefly, hearts from 1- to 3-day-old Sprague Dawley rats (Envigo) were harvested and minced in calcium- and magnesium-free Hanks balanced salt solution and the tissue was digested with 50 μg/ml of trypsin at 4° C. for 20 to 24 hours. Soybean trypsin inhibitor in Hanks balanced salt solution was added, and the tissue was further digested with collagenase (in Leibovitz L-15 medium) under slow rotation (0.14 g) at 37° C. for 45 minutes. Cells were broken up by triturating the suspension 20× with a standard 10-ml plastic serological pipette. Cells were then filtered through a cell strainer (70 μm, BD Falcon). Cells were incubated at room temperature for 20 minutes and spun at 100 g for 5 minutes. The cell pellet was resuspended in plating medium (DMEM Base [10013CV, Corning], 17% M199 [12350039, Gibco], 15% FBS [26140079, Gibco], I× Pen/Strep [15140122, Gibco]). For cell tracings, NRVMs were grown in 24-well plates on glass coverslips (CLS1760012, Chemglass). Slips were precoated with laminin (23017015, Invitrogen) at 10 μg/ml for 1 hour at 37° C. dissolved in PBS. Laminin was aspirated, and cells and medium were added. Cells were counted by a hemocytometer and plated at 4×10^5 cells per well. […] After 48 hours, maintenance medium was replaced, and after another 48 hours, cells were ready for treatment, giving a total of 72 hours of plating medium and 96 hours of maintenance medium before treatment. […]
The medium was aspirated, and cultured NRVMs were fixed in 2% paraformaldehyde (P-6148, Sigma-Aldrich) and 4% sucrose dissolved in PBS for 5 minutes followed by permeabilization with 1% Triton X-100 dissolved in PBS for 10 minutes. […] The cross-sectional area of myocytes was measured on the basis of α-actinin-positive staining using ImageJ software (v1.53, National Institutes of Health). […]

T2 sequence (P21802 22-377 limits assumed): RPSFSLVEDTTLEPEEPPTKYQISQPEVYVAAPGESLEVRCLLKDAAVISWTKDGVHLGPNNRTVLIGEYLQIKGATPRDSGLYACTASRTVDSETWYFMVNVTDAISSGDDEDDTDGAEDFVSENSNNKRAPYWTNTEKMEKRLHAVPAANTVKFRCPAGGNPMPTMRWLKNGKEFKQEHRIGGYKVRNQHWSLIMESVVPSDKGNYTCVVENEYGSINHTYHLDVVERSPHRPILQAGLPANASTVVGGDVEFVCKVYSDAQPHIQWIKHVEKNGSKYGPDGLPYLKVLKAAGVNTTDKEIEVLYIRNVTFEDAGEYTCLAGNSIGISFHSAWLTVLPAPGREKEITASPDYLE
T1 sequence (Q9GZV9 25-251): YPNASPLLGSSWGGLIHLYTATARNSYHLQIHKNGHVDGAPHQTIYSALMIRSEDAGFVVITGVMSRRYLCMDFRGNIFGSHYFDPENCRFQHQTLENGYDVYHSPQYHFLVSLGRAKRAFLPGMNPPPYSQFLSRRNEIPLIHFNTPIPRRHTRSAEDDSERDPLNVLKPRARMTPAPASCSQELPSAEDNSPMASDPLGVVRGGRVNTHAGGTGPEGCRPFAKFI
T1 sequence (P11362 22-376 limits assumed): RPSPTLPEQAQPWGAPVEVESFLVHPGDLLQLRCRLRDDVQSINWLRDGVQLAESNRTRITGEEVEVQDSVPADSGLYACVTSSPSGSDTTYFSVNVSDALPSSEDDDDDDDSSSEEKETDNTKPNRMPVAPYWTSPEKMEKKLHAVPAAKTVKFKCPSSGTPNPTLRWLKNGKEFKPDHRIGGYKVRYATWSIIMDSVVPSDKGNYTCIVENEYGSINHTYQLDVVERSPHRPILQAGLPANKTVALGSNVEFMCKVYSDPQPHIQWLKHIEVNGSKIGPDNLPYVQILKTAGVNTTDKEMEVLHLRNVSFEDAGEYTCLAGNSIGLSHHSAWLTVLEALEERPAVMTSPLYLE

heparin [reference compound]
binding of coated FGF23 to Fc-FGFR1c (FGF23 binding to FGFR1c): no measurable binding | binding of coated FGF23 to Fc-FGFR2c (FGF23 binding to FGFR2c): to a much lesser extent to FGFR2c; also recorded: weaker binding to FGFR2c | FGF23-induced increase in the cell area in the presence of heparin [1]: increased this effect at all FGF23 concentrations | FGF23-induced increase in the cell area in the presence of heparin ([1]; listed as heparin): further elevated | NRVM area, treatment by itself ([1]; without FGF23, 48 hours): no effect
